Here are results for 18 compounds from publication PMC6143625, “A high throughput screen for next-generation leads targeting malaria parasite transmission” (Nature Communications, 2018).

The subject of assay [1] is HepG2 human cells. On the set-up: method as in http://dx.doi.org/10.6019/CHEMBL3507680. The conditions noted are these: ref http://dx.doi.org/10.6019/CHEMBL3507680; cited from earlier work.
In assay [2] the test system is P. falciparum 3D7 asexual blood stages. Put plainly: Whole-cell time extended asexual growth assay (pLDH). Type of assay: cell-based. To be noted: Plasmodium falciparum, 72 h; for IC50: dose response retest, read-out: IC50 (µM) Asex stages; for inhibition at 2 µM: primary screen, read-out: %Inh Asex stages @2uM. Here is the method:
Asexual activity was assayed via Plasmodium lactate dehydrogenase activity (pLDH), a surrogate of asexual parasite growth. […] 2 µM artesunate and DMSO were used as the positive and negative controls, respectively. […] After plate mixing, NBT reduction was measured by absorbance at 650 nm using Envision (Perkin Elmer).

As for `Cc1cccc(C)c1Nc1noc2c1CN(C(=O)c1ccn(C)n1)CC2` [DDD01057030], the “%Inh HepG2 @10uM” value in assay [1] was 46.43%. In assay [2], the IC50 came out at 2 µM and the inhibition at 2 µM was 47.3%.

With `CCCNc1cc(-c2c[nH]nc2C2CCN(C(=O)C3CCC3)C2)ccn1` (stereo not drawn) [DDD01057089], the “%Inh HepG2 @10uM” value in assay [1] is given as 96.64%. For the same compound, in assay [2], the IC50 amounted to 1.85 µM and the inhibition at 2 µM was 43.4%.

As to `Cl.NC1CCc2nc(-c3cccnc3)nc(Nc3ccc(F)cc3)c2C1` (stereo not drawn) [DDD01057099], the “%Inh HepG2 @10uM” value in assay [1] is 3.41%. For the same compound, in assay [2], the concentration for half-maximal inhibition (IC50) was 1.37 µM and the inhibition at 2 µM worked out at 68.5%.

On to `CC(C)Nc1cc(-c2c[nH]nc2C2CCN(C(=O)C3CC3)C2)ccn1` (stereo not drawn) [DDD01057305], for which the “%Inh HepG2 @10uM” value in assay [1] is reported as 96.71%. In addition, in assay [2], the IC50 came out at 5.06 µM and the inhibition at 2 µM came out at 30.6%.

As for `CC(C)CNc1cc(-c2c[nH]nc2C2CCN(C(=O)C3CC3)C2)ccn1` (stereo not drawn) [DDD01057306], the “%Inh HepG2 @10uM” value in assay [1] was 95.13%. Besides, in assay [2], the IC50 was found to be 3.78 µM and the inhibition at 2 µM is 35.1%.

As to `CC(C)Nc1cc(-c2c[nH]nc2C2CCN(C(=O)C3CCC3)C2)ccn1` (stereo not drawn) [DDD01057307], the “%Inh HepG2 @10uM” value in assay [1] is given as 95.83%. Further, in assay [2], the IC50 came to 2.39 µM and the inhibition at 2 µM was 36.2%.

As to `CCOc1ccc(CN2CCCC(c3cc4ncccc4[nH]3)C2)cc1` (stereo not drawn) [DDD01057418], the “%Inh HepG2 @10uM” value in assay [1] is reported as 6.95%. In assay [2], the IC50 worked out at 1.67 µM and the inhibition at 2 µM turned out to be 91.8%.

For the compound `COCC(=O)N1CCCC(c2nc(N(C)C)ncc2-c2ccccc2)C1` (stereo not drawn) [DDD01057962], the “%Inh HepG2 @10uM” value in assay [1] is on record as 4.41%. Besides, in assay [2], the IC50 turned out to be 5.84 µM and the inhibition at 2 µM was determined as 42.5%.

`Cc1nn(C)cc1C1=NS(=O)(=O)N(C)C(C(=O)Nc2ccc(Cl)cc2)=C1` [DDD01058696]: in assay [1], the “%Inh HepG2 @10uM” value is on record as 1.32%. In addition, in assay [2], the IC50 was found to be 0.456 µM and the inhibition at 2 µM came to 97.9%.

With `Cc1nn(C)cc1C1=NS(=O)(=O)N(C)C(C(=O)Nc2ccc(Br)cc2)=C1` [DDD01058697], the “%Inh HepG2 @10uM” value in assay [1] is listed as 0.0552%. Besides, in assay [2], the half-inhibitory concentration (IC50) is 0.366 µM and the inhibition at 2 µM is 98%.

For the compound `Cl.Fc1ccc(F)c(CN2CCC(c3cc4ncccc4cn3)CC2)c1` [DDD01058752], the “%Inh HepG2 @10uM” value in assay [1] is 4.59%. In assay [2], the IC50 was found to be 1.79 µM and the inhibition at 2 µM is 62.6%.

Regarding `Cl.Fc1cccc(CN2CCC(c3cc4ncccc4cn3)CC2)c1F` [DDD01058754], the “%Inh HepG2 @10uM” value in assay [1] was 4.71%. In assay [2], the half-maximal inhibitory concentration (IC50) came to 1.64 µM and the inhibition at 2 µM was 33.2%.

As for `COc1ccc(C)cc1CN1CCC(c2cc3ncccc3cn2)CC1.Cl` [DDD01058767], the “%Inh HepG2 @10uM” value in assay [1] was 105.03%. In assay [2], the IC50 stood at 0.853 µM and the inhibition at 2 µM came out at 97.7%.

With `Cc1cc(CN2CCc3nc(-c4ccncc4)nc(O)c3CC2)c(C)s1` [DDD01058881], the “%Inh HepG2 @10uM” value in assay [1] is -7.80%. In assay [2], the IC50 worked out at 2.2 µM and the inhibition at 2 µM was 77.5%.

Regarding `CN(C)CCN(C)C(=O)Cn1cccc2cc(-c3ccc(F)cc3)nc1-2` [DDD01059044], the “%Inh HepG2 @10uM” value in assay [1] was 4.32%. Besides, in assay [2], the IC50 was found to be 1.29 µM and the inhibition at 2 µM turned out to be 97%.

With `CCN1c2ccc(-c3cncn3CC(=O)NC(C)(C)C)cc2CC1C.Cl` (stereo not drawn) [DDD01059258], in assay [1], the “%Inh HepG2 @10uM” value is listed as -7.81%. Moreover, in assay [2], the concentration for half-maximal inhibition (IC50) was 2.95 µM and the inhibition at 2 µM came to 82.1%.

In the case of `c1ccc(-c2cc(CNCCN3CCCC3)c3nnnn3c2)cc1` [DDD01059599], the “%Inh HepG2 @10uM” value in assay [1] is reported as -3.47%. In addition, in assay [2], the IC50 stood at 1.55 µM and the inhibition at 2 µM was found to be 79.4%.

Take `COc1ccc(F)c(CN(CCCn2ccnc2)Cc2ccc(C)s2)c1.O=C(O)CC(O)(CC(=O)O)C(=O)O` [DDD01059675]: in assay [1], the “%Inh HepG2 @10uM” value was 45.48%. In assay [2], the IC50 came to 8.49 µM and the inhibition at 2 µM is 33.8%.

In general, IC50 refers to the concentration at which inhibition is half-maximal.
